According to patent US20110144079A1, “ANTIMICROBIAL SYSTEM” (priority 2008, published 2011):

tested on: B. cereus; assay: Broth microdilution MIC/MBC; assay type: cell-based; settings: 24 h at 37° C.
Method: (§1) Broth microdilution tests were performed according to NCCLS guidelines. Serial two-fold dilutions of each imidazolium salt (from an original working solution which had been 0.22 μm sterile filtered) in Mueller-Hinton Broth (MHB) (100 μl) were prepared in 96-well micro-titre plates over the range 0.0000625-1% w/v. The inoculum to be tested was prepared by adjusting the turbidity of an actively overnight growing broth culture in MHB to an optical density at 550 nm equivalent to 1×10^8 CFU/ml. The suspension was further diluted to provide a final inoculum density of 2×10^5 CFU/ml in MHB as verified by total viable count. The inoculum to be tested (100 μl, 2×10^5 CFU ml^−1) was added to each well of the microdilution trays which were incubated aerobically for 24 h at 37° C. Positive and negative growth controls were included in every assay (6 replicates). After determining the MICs, minimum bactericidal concentrations (MBCs) were determined by spreading 20 μl of suspension from wells showing no growth onto MHA plates, which were then incubated for 24 h and examined for 99.9% killing.

SMILES	MIC [µM]
CCCCCCCCCCCCCCn1cc[n+](C)c1.CCCCCCCCCCCCCCn1cc[n+](C)c1.[Cl][Cu-2]([Cl])([Cl])[Cl] [(1-alkyl-3-methylimidazolium)2CuCl4 14]	80.06
CCCCCCCCCCCCCCCCn1cc[n+](C)c1.[Br][Ag-][Br] [1-alkyl-3-methylimidazolium-AgBr2 16]	68.89
CCCCCCCCCC[n+]1ccn(C)c1.CCCCCCCCCC[n+]1ccn(C)c1.[Cl][Cu-2]([Cl])([Cl])[Cl] [(1-alkyl-3-methylimidazolium)2CuCl4 10]	1746.4
CCCCCCCCCCCC[n+]1ccn(C)c1.[Br][Ag-][Br] [1-alkyl-3-methylimidazolium-AgBr2 12]	68.81
CCCCCCCC[n+]1ccn(C)c1.CCCCCCCC[n+]1ccn(C)c1.[Cl][Cu-2]([Cl])([Cl])[Cl] [(1-alkyl-3-methylimidazolium)2CuCl4 8]	1883.21

same assay, conditions: Bacillus cereus, 24 h at 37° C.

SMILES	MIC [µM]
CCCCCCCCCCCCCC[n+]1ccn(C)c1C [IL1, 1,2-dimethyl-3-tetradecylimidazolium bromide, reference compound]	372
CCCCCCCCCCCCCC[N+](C)(C)CCO [IL2, N,N-dimethyl-N-(2-hydroxyethyl)-N-tetradecylammonium bromide, reference compound]	13.3

tested on: C. tropicalis NCTC 7393; assay: Broth microdilution MIC/MBC; assay type: cell-based; settings: C. tropicalis NCTC 7393, 24 h at 37° C.
Method: as §1

SMILES	MIC [µM]
CCCCCCCCCCCCCCn1cc[n+](C)c1.CCCCCCCCCCCCCCn1cc[n+](C)c1.[Cl][Cu-2]([Cl])([Cl])[Cl] [(1-alkyl-3-methylimidazolium)2CuCl4 14]	20.01
CCCCCCCCCCCCCCCCn1cc[n+](C)c1.[Br][Ag-][Br] [1-alkyl-3-methylimidazolium-AgBr2 16]	34.44
CCCCCCCCCC[n+]1ccn(C)c1.CCCCCCCCCC[n+]1ccn(C)c1.[Cl][Cu-2]([Cl])([Cl])[Cl] [(1-alkyl-3-methylimidazolium)2CuCl4 10]	218.3
CCCCCCCCCCCC[n+]1ccn(C)c1.[Br][Ag-][Br] [1-alkyl-3-methylimidazolium-AgBr2 12]	75.85
CCCCCCCC[n+]1ccn(C)c1.CCCCCCCC[n+]1ccn(C)c1.[Cl][Cu-2]([Cl])([Cl])[Cl] [(1-alkyl-3-methylimidazolium)2CuCl4 8]	941.6

tested on: E. coli NCTC 8196; assay: Broth microdilution MIC/MBC; assay type: cell-based; settings: E. coli NCTC 8196, 24 h at 37° C.
Method: as §1

SMILES	MIC [µM]
CCCCCCCCCCCCCCn1cc[n+](C)c1.CCCCCCCCCCCCCCn1cc[n+](C)c1.[Cl][Cu-2]([Cl])([Cl])[Cl] [(1-alkyl-3-methylimidazolium)2CuCl4 14]	40.02
CCCCCCCCCCCCCCCCn1cc[n+](C)c1.[Br][Ag-][Br] [1-alkyl-3-methylimidazolium-AgBr2 16]	28.91
CCCCCCCCCC[n+]1ccn(C)c1.CCCCCCCCCC[n+]1ccn(C)c1.[Cl][Cu-2]([Cl])([Cl])[Cl] [(1-alkyl-3-methylimidazolium)2CuCl4 10]	101.74
CCCCCCCCCCCC[n+]1ccn(C)c1.[Br][Ag-][Br] [1-alkyl-3-methylimidazolium-AgBr2 12]	31.32
CCCCCCCC[n+]1ccn(C)c1.CCCCCCCC[n+]1ccn(C)c1.[Cl][Cu-2]([Cl])([Cl])[Cl] [(1-alkyl-3-methylimidazolium)2CuCl4 8]	470

same assay, conditions: Escherichia coli, NCTC8196; E. coli NCTC 8196, 24 h at 37° C.

SMILES	MIC [µM]
CCCCCCCCCCCCCC[n+]1ccn(C)c1C [IL1, 1,2-dimethyl-3-tetradecylimidazolium bromide, reference compound]	46.5
CCCCCCCCCCCCCC[N+](C)(C)CCO [IL2, N,N-dimethyl-N-(2-hydroxyethyl)-N-tetradecylammonium bromide, reference compound]	53.4

tested on: K. aerogenes NCTC 7427; assay: Broth microdilution MIC/MBC; assay type: cell-based; settings: K. aerogenes NCTC 7427, 24 h at 37° C.
Method: as §1

SMILES	MIC [µM]
CCCCCCCCCCCCCCn1cc[n+](C)c1.CCCCCCCCCCCCCCn1cc[n+](C)c1.[Cl][Cu-2]([Cl])([Cl])[Cl] [(1-alkyl-3-methylimidazolium)2CuCl4 14]	40.02
CCCCCCCCCCCCCCCCn1cc[n+](C)c1.[Br][Ag-][Br] [1-alkyl-3-methylimidazolium-AgBr2 16]	34.44
CCCCCCCCCC[n+]1ccn(C)c1.CCCCCCCCCC[n+]1ccn(C)c1.[Cl][Cu-2]([Cl])([Cl])[Cl] [(1-alkyl-3-methylimidazolium)2CuCl4 10]	218.3
CCCCCCCCCCCC[n+]1ccn(C)c1.[Br][Ag-][Br] [1-alkyl-3-methylimidazolium-AgBr2 12]	34.40
CCCCCCCC[n+]1ccn(C)c1.CCCCCCCC[n+]1ccn(C)c1.[Cl][Cu-2]([Cl])([Cl])[Cl] [(1-alkyl-3-methylimidazolium)2CuCl4 8]	941.6

tested on: P. aeruginosa PA01; assay: Broth microdilution MIC/MBC; assay type: cell-based; settings: Pseudomonas aeruginosa, PA01, 24 h, P. aeruginosa PA01, 24 h at 37° C.; read-out: MIC
Method: as §1

SMILES	MIC [µM]
CCCCCCCCCCCCCC[n+]1ccn(C)c1C [IL1, 1,2-dimethyl-3-tetradecylimidazolium bromide, reference compound]	743
CCCCCCCCCCCCCC[N+](C)(C)CCO [IL2, N,N-dimethyl-N-(2-hydroxyethyl)-N-tetradecylammonium bromide, reference compound]	427

tested on: P. mirabilis NCTC 12442; assay: Broth microdilution MIC/MBC; assay type: cell-based; settings: P. mirabilis NCTC 12442, 24 h at 37° C.
Method: as §1

SMILES	MIC [µM]
CCCCCCCCCCCCCCn1cc[n+](C)c1.CCCCCCCCCCCCCCn1cc[n+](C)c1.[Cl][Cu-2]([Cl])([Cl])[Cl] [(1-alkyl-3-methylimidazolium)2CuCl4 14]	20.01
CCCCCCCCCCCCCCCCn1cc[n+](C)c1.[Br][Ag-][Br] [1-alkyl-3-methylimidazolium-AgBr2 16]	34.44
CCCCCCCCCC[n+]1ccn(C)c1.CCCCCCCCCC[n+]1ccn(C)c1.[Cl][Cu-2]([Cl])([Cl])[Cl] [(1-alkyl-3-methylimidazolium)2CuCl4 10]	218.3
CCCCCCCCCCCC[n+]1ccn(C)c1.[Br][Ag-][Br] [1-alkyl-3-methylimidazolium-AgBr2 12]	34.40
CCCCCCCC[n+]1ccn(C)c1.CCCCCCCC[n+]1ccn(C)c1.[Cl][Cu-2]([Cl])([Cl])[Cl] [(1-alkyl-3-methylimidazolium)2CuCl4 8]	941.6

same assay, conditions: Proteus mirabilis, NCTC12442; P. mirabilis NCTC 12442, 24 h at 37° C.

SMILES	MIC [µM]
CCCCCCCCCCCCCC[n+]1ccn(C)c1C [IL1, 1,2-dimethyl-3-tetradecylimidazolium bromide, reference compound]	372
CCCCCCCCCCCCCC[N+](C)(C)CCO [IL2, N,N-dimethyl-N-(2-hydroxyethyl)-N-tetradecylammonium bromide, reference compound]	427

tested on: S. aureus ATCC 29213; assay: Broth microdilution MIC/MBC; assay type: cell-based; settings: S. aureus ATCC 29213, 24 h at 37° C.
Method: as §1

SMILES	MIC [µM]
CCCCCCCCCCCCCCn1cc[n+](C)c1.CCCCCCCCCCCCCCn1cc[n+](C)c1.[Cl][Cu-2]([Cl])([Cl])[Cl] [(1-alkyl-3-methylimidazolium)2CuCl4 14]	40.02
CCCCCCCCCCCCCCCCn1cc[n+](C)c1.[Br][Ag-][Br] [1-alkyl-3-methylimidazolium-AgBr2 16]	7.23
CCCCCCCCCC[n+]1ccn(C)c1.CCCCCCCCCC[n+]1ccn(C)c1.[Cl][Cu-2]([Cl])([Cl])[Cl] [(1-alkyl-3-methylimidazolium)2CuCl4 10]	101.74
CCCCCCCCCCCC[n+]1ccn(C)c1.[Br][Ag-][Br] [1-alkyl-3-methylimidazolium-AgBr2 12]	15.66
CCCCCCCC[n+]1ccn(C)c1.CCCCCCCC[n+]1ccn(C)c1.[Cl][Cu-2]([Cl])([Cl])[Cl] [(1-alkyl-3-methylimidazolium)2CuCl4 8]	470

tested on: S. epidermidis ATCC 12228; assay: Broth microdilution MIC/MBC; assay type: cell-based; settings: S. epidermidis ATCC 12228, 24 h at 37° C.
Method: as §1

SMILES	MIC [µM]
CCCCCCCCCCCCCCn1cc[n+](C)c1.CCCCCCCCCCCCCCn1cc[n+](C)c1.[Cl][Cu-2]([Cl])([Cl])[Cl] [(1-alkyl-3-methylimidazolium)2CuCl4 14]	20.01
CCCCCCCCCCCCCCCCn1cc[n+](C)c1.[Br][Ag-][Br] [1-alkyl-3-methylimidazolium-AgBr2 16]	3.61
CCCCCCCCCC[n+]1ccn(C)c1.CCCCCCCCCC[n+]1ccn(C)c1.[Cl][Cu-2]([Cl])([Cl])[Cl] [(1-alkyl-3-methylimidazolium)2CuCl4 10]	101.74
CCCCCCCCCCCC[n+]1ccn(C)c1.[Br][Ag-][Br] [1-alkyl-3-methylimidazolium-AgBr2 12]	31.32
CCCCCCCC[n+]1ccn(C)c1.CCCCCCCC[n+]1ccn(C)c1.[Cl][Cu-2]([Cl])([Cl])[Cl] [(1-alkyl-3-methylimidazolium)2CuCl4 8]	470

same assay, conditions: Staphylococcus epidermidis, ATCC12228; S. epidermidis ATCC 12228, 24 h at 37° C.

SMILES	MIC [µM]
CCCCCCCCCCCCCC[n+]1ccn(C)c1C [IL1, 1,2-dimethyl-3-tetradecylimidazolium bromide, reference compound]	213

tested on: S. epidermidis ATCC 35984; assay: Broth microdilution MIC/MBC; assay type: cell-based; settings: S. epidermidis ATCC 35984, 24 h at 37° C.
Method: as §1

SMILES	MIC [µM]
CCCCCCCCCCCCCCn1cc[n+](C)c1.CCCCCCCCCCCCCCn1cc[n+](C)c1.[Cl][Cu-2]([Cl])([Cl])[Cl] [(1-alkyl-3-methylimidazolium)2CuCl4 14]	40.02
CCCCCCCCCCCCCCCCn1cc[n+](C)c1.[Br][Ag-][Br] [1-alkyl-3-methylimidazolium-AgBr2 16]	3.61
CCCCCCCCCC[n+]1ccn(C)c1.CCCCCCCCCC[n+]1ccn(C)c1.[Cl][Cu-2]([Cl])([Cl])[Cl] [(1-alkyl-3-methylimidazolium)2CuCl4 10]	101.74
CCCCCCCCCCCC[n+]1ccn(C)c1.[Br][Ag-][Br] [1-alkyl-3-methylimidazolium-AgBr2 12]	15.66
CCCCCCCC[n+]1ccn(C)c1.CCCCCCCC[n+]1ccn(C)c1.[Cl][Cu-2]([Cl])([Cl])[Cl] [(1-alkyl-3-methylimidazolium)2CuCl4 8]	470

tested on: MRSA; assay: Broth microdilution MIC/MBC; assay type: cell-based, methicillin-resistant S. aureus; settings: Staphylococcus aureus, 24 h at 37° C.
Method: as §1

SMILES	MIC [µM]
CCCCCCCCCCCCCC[n+]1ccn(C)c1C [IL1, 1,2-dimethyl-3-tetradecylimidazolium bromide, reference compound]	186

tested on: MRSA; assay: Zone of inhibition on MRSA-seeded agar culture plates; assay type: cell-based, methicillin-resistant S. aureus; settings: 40 μL of ionic liquid applied to MRSA-seeded agar culture plates
Description: As used herein, CyMIMCI, refers to 1-alkyl-3-methyl-imidazolium chloride ionic liquids, wherein the alkyl group is a straight chain alkyl group having y carbon atoms.

SMILES	Zone Of Inhibition Radius [mm]
CCCCCCCCCCCCCCCCCCn1cc[n+](C)c1.[Cl-] [C18MIMCl]	10
CCCCCCCCCCCCCCCCn1cc[n+](C)c1.[Cl-] [C16MIMCl]	6
